Test results published in ChEMBL document CHEMBL5321281, “Synthesis and Biological Evaluation of Heterocyclic Ring-Fused 20(S)-Protopanaxadiol Derivatives as Potent Antiosteoporosis Agents” (J Med Chem, 2023).
The source made the active and inactive calls. The rule behind the calls is not given here.

Columns and labels:
Mus musculus [1] = experiment: Protective effect in ovariectomy induced osteoporosis C57BL/6 mouse model assessed as increase in bone volume/tissue volume (BV/TV) in RIO of femur at 1 mg/kg, ip and measured after 6 weeks by micro-CT analysis; assay type: functional
BMMC [2] = experiment: (§1) Anti-osteoclastogenic activity in C57/BL6 mouse BMMC cells assessed as inhibition of RANKL-induced osteoclast differentiation incubated for 5 to 7 days in presence of M-CSF by TRAP staining based microscopic analysis relative to control; assay type: functional, cell-based
[3] = Microsomal stability in mouse liver microsomes assessed as half life at 1 uM and measured upto 60 mins by LC-MS/ MS analysis; assay type: ADME, Microsome
BMMC [4] = experiment: as §1, with “by observing number of TRAP-positive multinucleated cells at 1 uM and compound added at different times and measured after” for “incubated for 5 to”; assay type: functional, cell-based; conditions: time 7.0 day, TDE = time-dependent effect
[5] = Tmax in ICR mouse at 10 mg/kg, po and measured upto 24 hrs by LC-MS/MS analysis; assay type: ADME, organism-based; conditions: in vivo
BMMC [6] = experiment: Anti-osteoclastogenic activity in C57/BL6 mouse BMMC cells assessed as reduction in RANKL-induced TRAP protein expression level at 0.1 uM incubated for 1 to 3 days in presence of M-CSF by Western blot anlaysis; assay type: functional, cell-based; conditions: time 1-3 day
[7] = AUCt in ICR mouse at 1 mg/kg, iv and measured upto 24 hrs by LC-MS/MS analysis; assay type: ADME, organism-based; design: dose 1 mg/kg, time < 24 hrs, route iv; conditions: in vivo
BMMC [8] = experiment: Cytotoxicity against C57/BL6 mouse BMMC cells assessed as reduction in cell viability at 10 uM incubated for 24 hrs by CCK-8 assay; assay type: toxicity, cell-based
[9] = Half life in ICR mouse at 10 mg/kg, po and measured upto 24 hrs by LC-MS/MS analysis; assay type: ADME, organism-based; conditions: in vivo
[10] = AUC (0 to infinity) in ICR mouse at 10 mg/kg, po and measured upto 24 hrs by LC-MS/MS analysis; assay type: ADME, organism-based; design: dose 10 mg/kg, time < 24 hrs, route po; conditions: in vivo
Mus musculus [11] = experiment: Protective effect in ovariectomy induced osteoporosis C57BL/6 mouse model assessed as increase in bone volume/tissue volume (BV/TV) in RIO of femur at 3 mg/kg, ip and measured after 6 weeks by micro-CT analysis; assay type: functional
Mus musculus [12] = experiment: Protective effect in ovariectomy induced osteoporosis C57BL/6 mouse model assessed as increase in bone surface/tissue volume (BS/TV) in RIO of femur at 1 to 3 mg/kg, ip and measured after 6 weeks by micro-CT analysis; assay type: functional, organism-based; conditions: dose 1-3 mg/kg
BMMC [13] = experiment: Anti-osteoclastogenic activity in C57/BL6 mouse BMMC cells assessed as reduction in RANKL-induced MMP-9 protein expression level at 0.1 uM incubated for 1 to 3 days in presence of M-CSF by Western blot anlaysis; assay type: functional, cell-based; conditions: time 1-3 day
Mus musculus [14] = experiment: Protective effect in ovariectomy induced osteoporosis C57BL/6 mouse model assessed as increase in trabecular bone number (Tb.N) in RIO of femur at 1 to 3 mg/kg, ip and measured after 6 weeks by micro-CT analysis; assay type: functional, organism-based; conditions: dose 1-3 mg/kg
[15] = Microsomal stability in mouse liver microsomes assessed as parent compound remaining at 1 uM and measured after 60 mins by LC-MS/ MS analysis; assay type: ADME, Microsome; conditions: read-out: Stability
BMMC [16] = experiment: (§2) Anti-osteoclastogenic activity in C57/BL6 mouse BMMC cells assessed as inhibition of RANKL-induced osteoclast differentiation at 0.01 to 5 uM incubated for 5 to 7 days in presence of M-CSF by TRAP staining based microscopic analysis relative to control; assay type: functional, cell-based; conditions: dose 0.01-5 µM, time 5-7 day
BMMC [17] = experiment: Anti-osteoclastogenic activity in C57/BL6 mouse BMMC cells assessed as inhibition of RANKL-stimulated osteoclastogenesis at 1 uM and compound added at day 5 to 7 (late stage) and measured after 3 days in presence of M-CSF by TRAP staining based microscopic analysis relative to control; assay type: functional; conditions: 72 h, time 3 day
BMMC [18] = experiment: Anti-osteoclastogenic activity in C57/BL6 mouse BMMC cells assessed as reduction in RANKL-induced ATPase v0d2 mRNA expression level at 0.1 uM incubated for 1 to 5 days in presence of M-CSF by qRT-PCR analysis; assay type: functional, cell-based; conditions: time 1-5 day, TDE = time-dependent effect
BMMC [19] = experiment: Anti-osteoclastogenic activity in C57/BL6 mouse BMMC cells assessed as reduction in RANKL-induced CTSK mRNA expression level at 0.1 uM incubated for 1 to 5 days in presence of M-CSF by qRT-PCR analysis; assay type: functional, cell-based; conditions: time 1-5 day, TDE = time-dependent effect
BMMC [20] = experiment: Anti-osteoclastogenic activity in C57/BL6 mouse BMMC cells assessed as reduction in RANKL-induced CTSK protein expression level at 0.1 uM incubated for 1 to 3 days in presence of M-CSF by Western blot anlaysis; assay type: functional, cell-based; conditions: time 1-3 day
[21] = Microsomal stability in mouse liver microsomes assessed as intrinsic clearance at 1 uM and measured upto 60 mins by LC-MS/ MS analysis; assay type: ADME, Microsome; conditions: read-out: CLH
[22] = Toxicity in ovariectomy induced osteoporosis C57BL/6 mouse model assessed as body weight change at 1 to 3 mg/kg, ip and measured for 6 weeks; assay type: organism-based; conditions: in vivo, 1008 h, dose 1-3 mg/kg
BMMC [23] = experiment: Anti-osteoclastogenic activity in C57/BL6 mouse BMMC cells assessed as reduction in RANKL-induced MMP-9 mRNA expression level at 0.1 uM incubated for 1 to 5 days in presence of M-CSF by qRT-PCR analysis; assay type: functional, cell-based; conditions: time 1-5 day, TDE = time-dependent effect
BMMC [24] = experiment: Anti-osteoclastogenic activity in C57/BL6 mouse BMMC cells assessed as inhibition of RANKL-induced osteoclast differentiation at 0.01 uM incubated for 5 to 7 days in presence of M-CSF by TRAP staining based microscopic analysis relative to control; assay type: functional; conditions: time 5-7 day
BMMC [25] = experiment: Anti-osteoclastogenic activity in C57/BL6 mouse BMMC cells assessed as inhibition of RANKL-induced osteoclast differentiation at 0.1 uM incubated for 5 to 7 days in presence of M-CSF by TRAP staining based microscopic analysis relative to control; assay type: functional; conditions: time 5-7 day
[26] = AUCt in ICR mouse at 10 mg/kg, po and measured upto 24 hrs by LC-MS/MS analysis; assay type: ADME, organism-based; design: dose 10 mg/kg, time < 24 hrs, route po; conditions: in vivo
[27] = AUC (0 to infinity) in ICR mouse at 1 mg/kg, iv and measured upto 24 hrs by LC-MS/MS analysis; assay type: ADME, organism-based; design: dose 1 mg/kg, time < 24 hrs, route iv; conditions: in vivo
BMMC [28] = experiment: as §2, with “differentiation by measuring number of TRAP-positive multinucleated cells” for “differentiation”; assay type: functional, cell-based; conditions: dose 0.01-5 µM, time 5-7 day
[29] = Apparent volume of distribution in ICR mouse at 1 mg/kg, iv and measured upto 24 hrs by LC-MS/MS analysis; assay type: ADME, organism-based; conditions: in vivo, read-out: Vz
[30] = Cmax in ICR mouse at 1 mg/kg, iv and measured upto 24 hrs by LC-MS/MS analysis; assay type: ADME, organism-based; design: dose 1 mg/kg, time < 24 hrs, route iv; conditions: in vivo
[31] = Tmax in ICR mouse at 1 mg/kg, iv and measured upto 24 hrs by LC-MS/MS analysis; assay type: ADME, organism-based; conditions: in vivo
BMMC [32] = experiment: Anti-osteoclastogenic activity in C57/BL6 mouse BMMC cells assessed as reduction in RANKL-induced TRAP mRNA expression level at 0.1 uM incubated for 1 to 5 days in presence of M-CSF by qRT-PCR analysis; assay type: functional, cell-based; conditions: time 1-5 day, TDE = time-dependent effect

SMILES: C=C(CCC=C(C)C)[C@H]1CC[C@]2(C)[C@@H]1[C@H](O)C[C@@H]1[C@@]3(C)Cc4cnc(C)nc4C(C)(C)[C@@H]3CC[C@]12C
- Activity (Mus musculus [1]): 5.6%
- IC50 (BMMC [2]): 0.0103 µM
- half-life at 1 µM [3]: 37.1 min
- inhibition (BMMC [4]): Tde
- Tmax [5]: 60 min
- Activity (BMMC [6]): Active
- AUC(0-t) at 24 h [7]: 1170 ng·h/mL
- Activity (BMMC [8]): >= 100%
- half-life [9]: 61.8 min
- AUC(0-inf) [10]: 1230 ng·h/mL
- Activity (Mus musculus [11]): 23.2%
- Activity (Mus musculus [12]): Active
- Activity (BMMC [13]): Active
- Activity (Mus musculus [14]): Active
- remaining at 1 h, 1 µM [15]: 31%
- inhibition (BMMC [16]): Dose-Dependent Effect
- inhibition at 1 µM (BMMC [17]): 62.3%
- Activity (BMMC [18]): Tde
- Activity (BMMC [19]): Tde
- Activity (BMMC [20]): Active
- microsomal CLint at 1 µM [21]: 37.4 µL/min/mg
- Activity [22]: Non-Toxic
- Activity (BMMC [23]): Tde
- inhibition at 0.01 µM (BMMC [24]): 44.4%
- inhibition at 0.1 µM (BMMC [25]): 100%
- AUC(0-t) at 24 h [26]: 1210 ng·h/mL
- AUC(0-inf) [27]: 1170 ng·h/mL
- inhibition (BMMC [28]): Dose-Dependent Effect
- Vd [29]: 0.413 L/kg
- Cmax [30]: 4180 ng/mL
- Tmax [31]: 4.8 min
- Activity (BMMC [32]): Tde
